This assay has as its target human phosphoinositide-3 kinase (PI3K) alpha (Homo sapiens (Human), UniProt P42336). Briefly: PI3K-mediated Akt 1/2 (S473) phosphorylation in Rat-1 cells overexpressing PI3K alpha. In kind it is cell-based, rat cells expressing human PI3K alpha. Particulars: cellular assay, p-AKT(Ser473), read-out: Cell PI3K alpha IC50. As to the method: 2.1 Phosphoinositide-3 kinase (PI3K)-Mediated Akt 1/2 (S473) Phosphorylation in Rat-1 Cells
Rat-1 cells stably overexpressing a myristoylated form of the catalytic subunit of human phosphoinositide-3 kinase (PI3K) alpha, beta or delta were plated in 384-well plates at a density of 7500 (PI3K alpha), 6200 (PI3K beta), or 4000 (PI3K delta) cells in 30 ul complete growth medium (Dulbecco's modified Eagle's medium (DMEM high glucose) supplemented with 10% (v/v) fetal bovine serum, 1% (v/v) MEM non essential amino acids, 10 mM HEPES, 2 mM L-glutamine, 10 μg/mL puromycin and 1% (v/v) Penicillin/Streptomycin) and were incubated at […]/5% CO2/95% humidity for 24 h. Compounds were diluted in 384-well compound plates (compound master plates), to obtain 8-point serial dilutions for 40 test compounds in 90% DMSO, as well as 4 reference compounds plus 16 high controls and 16 low (inhibited) controls. Predilution plates were prepared by dispensing pipetting 250 nl of compound solutions into 384-well polypropylen plates (daugther plates), using a Hummingwell nanoliter dispenser. Compounds were prediluted by the addition of 49.75 ul complete growth medium. 10 ul of prediluted compound solution were transferred to the cell plate using a 384-well pipettor, resulting in a final DMSO concentration of 0.11%. Cells were incubated for 1 h at […]/5% CO2/95% humidity. The supernatant was removed, the cells were lysed in 20 ul of lysis buffer for AlphaScreen® SureFire® detection.
For detection of p-AKT(Ser473), the SureFire® p-Akt 1/2 (Ser473) Assay Kit (PerkinElmer, U.S.A.) was used. 5 ul of cell lysate was transferred to 384-well low volume Proxiplates for detection using a 384-well pipettor. Addition of AlphaScreen® SureFire® reagents was done according to the manufacturer's protocol. First, 5 ul of reaction buffer plus activation buffer mix containing AlphaScreen® acceptor beads was added, the plate was sealed, and incubated on a plate shaker for 2 hours at room temperature. Second, 2 ul of dilution buffer containing AlphaScreen® donor beads was added, and the plate was incubated on plate shaker as above for a further 2 hours. The plate was read on an AlphaScreen® compatible plate reader, using standard AlphaScreen® settings. Alternatively, p-AKT(Ser473) was detected with the CisBio HTRF Assay Kit: As positive control, 0.9 mM of 1-(3-(trifluoromethyl)-4-(piperazin-1-yl)phenyl)-8-(6-methoxypyridin-3-yl)-3-methyl-1H-imidazo[4,5-c]quinolin-2(3H)-one maleic acid salt in 90% (v/v) DMSO was added to the compound master plate. For compound testing, the cells were seeded at a density of 4000 (Rat-1_PI3Kdelta), 8000 (Rat-1_PI3Kalpha), or 6500 (Rat-1_PI3Kbeta) cells in 30 ul complete growth medium into 384-well plates, with a plastic surface promoting the adhesion of cells and their growth (assay plates) and were grown at 37° C./5% CO2/90% humidity for 24 h. Some 10 ul of the compound predilutions from the daughter plate were then transferred to the cells. After treatment with compound for 1 h, medium was removed and cells were lysed by the addition of 20 ul lysis buffer supplemented with blocking buffer. Detection of p-AKT(Ser473) was performed with the HTRF pAKT (Ser473) assay kit according to the manufacturer's instructions using 16 ul of cell lysate in a total detection volume of 20 ul.
human phosphoinositide-3 kinase (PI3K) alpha, sequence (P42336 whole entry): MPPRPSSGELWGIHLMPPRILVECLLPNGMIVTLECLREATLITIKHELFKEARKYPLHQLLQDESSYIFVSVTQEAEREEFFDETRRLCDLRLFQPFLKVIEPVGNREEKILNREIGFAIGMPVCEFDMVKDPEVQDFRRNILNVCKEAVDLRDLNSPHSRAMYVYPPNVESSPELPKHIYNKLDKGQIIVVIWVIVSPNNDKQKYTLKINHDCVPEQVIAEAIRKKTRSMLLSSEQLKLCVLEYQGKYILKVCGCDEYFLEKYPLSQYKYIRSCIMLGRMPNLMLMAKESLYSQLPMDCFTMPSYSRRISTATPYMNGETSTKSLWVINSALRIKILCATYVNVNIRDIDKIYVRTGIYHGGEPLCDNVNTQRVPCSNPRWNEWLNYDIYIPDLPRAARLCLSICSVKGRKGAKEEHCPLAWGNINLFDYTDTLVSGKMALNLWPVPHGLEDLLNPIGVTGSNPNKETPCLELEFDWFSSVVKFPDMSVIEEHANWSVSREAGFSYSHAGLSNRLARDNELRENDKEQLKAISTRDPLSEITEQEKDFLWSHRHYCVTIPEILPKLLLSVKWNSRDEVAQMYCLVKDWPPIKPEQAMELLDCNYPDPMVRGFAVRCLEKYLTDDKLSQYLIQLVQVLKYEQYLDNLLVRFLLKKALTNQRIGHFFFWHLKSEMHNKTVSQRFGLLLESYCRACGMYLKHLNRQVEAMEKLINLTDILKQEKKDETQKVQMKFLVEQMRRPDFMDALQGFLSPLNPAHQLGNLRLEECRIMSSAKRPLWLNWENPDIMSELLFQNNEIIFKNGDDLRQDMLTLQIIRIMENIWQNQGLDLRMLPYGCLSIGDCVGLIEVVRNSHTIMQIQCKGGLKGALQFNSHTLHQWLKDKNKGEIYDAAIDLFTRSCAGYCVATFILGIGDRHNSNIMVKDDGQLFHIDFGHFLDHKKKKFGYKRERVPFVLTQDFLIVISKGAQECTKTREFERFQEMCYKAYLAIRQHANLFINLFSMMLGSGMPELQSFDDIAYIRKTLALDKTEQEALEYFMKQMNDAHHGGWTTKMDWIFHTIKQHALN
human phosphoinositide-3 kinase (PI3K) alpha, sequence (Q63787 whole entry partner): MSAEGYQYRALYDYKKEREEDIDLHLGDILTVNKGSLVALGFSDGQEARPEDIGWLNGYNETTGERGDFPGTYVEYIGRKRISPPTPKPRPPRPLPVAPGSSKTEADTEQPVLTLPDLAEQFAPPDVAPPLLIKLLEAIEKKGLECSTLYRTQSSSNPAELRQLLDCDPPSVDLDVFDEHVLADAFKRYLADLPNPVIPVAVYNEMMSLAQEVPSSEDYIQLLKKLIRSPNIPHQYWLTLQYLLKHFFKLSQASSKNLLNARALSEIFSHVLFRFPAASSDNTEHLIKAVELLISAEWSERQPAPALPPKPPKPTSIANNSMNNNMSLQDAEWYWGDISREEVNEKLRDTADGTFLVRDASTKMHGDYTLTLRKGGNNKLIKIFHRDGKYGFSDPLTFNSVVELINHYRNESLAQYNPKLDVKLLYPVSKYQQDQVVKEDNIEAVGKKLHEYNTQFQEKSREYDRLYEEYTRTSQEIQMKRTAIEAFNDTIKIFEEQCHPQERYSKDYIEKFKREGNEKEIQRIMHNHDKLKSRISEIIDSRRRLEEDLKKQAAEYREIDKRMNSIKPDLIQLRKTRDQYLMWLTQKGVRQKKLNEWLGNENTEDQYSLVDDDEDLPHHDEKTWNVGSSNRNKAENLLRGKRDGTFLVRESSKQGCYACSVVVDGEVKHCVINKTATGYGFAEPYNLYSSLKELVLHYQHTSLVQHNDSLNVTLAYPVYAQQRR
For `Cc1nc(N)nc(N2C[C@@H](O)C[C@H]2c2nc3cccc(-c4cccnc4)c3c(=O)n2-c2ccccc2)c1C#N` [Example 24, 2-Amino-4-((2S,4S)-4-hydroxy-2-(4-oxo-3-phenyl-5-(pyridin-3-yl)-3,4-dihydroquinazolin-2-yl)pyrrolidin-1-yl)-6-methylpyrimidine-5-carbonitrile], the 50% inhibitory concentration (IC50) is 5000 nM.

In the case of `COc1ncc(-c2c(F)ccc3nc([C@@H]4C[C@H](O)CN4c4nc(N)nc(C)c4C#N)n(-c4ccccc4)c(=O)c23)s1` [Example 9, 2-Amino-4-((2S,4S)-2-(6-fluoro-5-(2-methoxythiazol-5-yl)-4-oxo-3-phenyl-3,4-dihydroquinazolin-2-yl)-4-hydroxypyrrolidin-1-yl)-6-methylpyrimidine-5-carbonitrile], the IC50 was determined as 670 nM.

With `COc1ncc(-c2cccc3nc([C@@H]4CCCN4c4ncnc(N)c4C#N)n(-c4ccccc4)c(=O)c23)cn1` [Example 3, (S)-4-Amino-6-(2-(5-(2-methoxypyrimidin-5-yl)-4-oxo-3-phenyl-3,4-dihydroquinazolin-2-yl)pyrrolidin-1-yl)pyrimidine-5-carbonitrile], the half-maximal inhibitory concentration (IC50) was 6800 nM.

Turning to `CO[C@H]1C[C@@H](c2nc3cccc(-c4cnn(C)c4)c3c(=O)n2-c2ccccc2)N(c2nc(N)nc3[nH]cnc23)C1` [Example 11, 2-((2S,4S)-1-(2-Amino-9H-purin-6-yl)-4-methoxypyrrolidin-2-yl)-5-(1-methyl-1H-pyrazol-4-yl)-3-phenylquinazolin-4(3H)-one], the IC50 is greater than 10000 nM.

Regarding `Cc1nc(N)nc(N2C[C@@H](O)C[C@H]2c2nc3cccc(-c4cnn(C)c4)c3c(=O)n2-c2ccccc2)c1C#N` [Example 16, 2-Amino-4-((2S,4S)-4-hydroxy-2-(5-(1-methyl-1H-pyrazol-4-yl)-4-oxo-3-phenyl-3,4-dihydroquinazolin-2-yl)pyrrolidin-1-yl)-6-methylpyrimidine-5-carbonitrile], the IC50 worked out at 2700 nM.

Consider `CCOc1ncc(-c2c(F)ccc3nc([C@@H]4C[C@H](O)CN4c4nc(N)nc(C)c4C#N)n(-c4ccccc4)c(=O)c23)cn1` [Example 29, 2-Amino-4-((2S,4S)-2-(5-(2-ethoxypyrimidin-5-yl)-6-fluoro-4-oxo-3-phenyl-3,4-dihydroquinazolin-2-yl)-4-hydroxypyrrolidin-1-yl)-6-methylpyrimidine-5-carbonitrile], for which the half-maximal inhibitory concentration (IC50) stood at 2700 nM.

Consider `Cn1cnc(-c2cccc3nc([C@@H]4CCCN4c4ncnc(N)c4C#N)n(-c4ccccc4)c(=O)c23)c1` [Example 15, (S)-4-Amino-6-(2-(5-(1-methyl-1H-imidazol-4-yl)-4-oxo-3-phenyl-3,4-dihydroquinazolin-2-yl)pyrrolidin-1-yl)pyrimidine-5-carbonitrile], for which the IC50 was greater than 10000 nM.

As to `Cc1nc(N)nc(N2CCC[C@H]2c2nc3cccc(-c4cccnc4)c3c(=O)n2-c2ccccc2)c1C#N` [Example 20, (S)-2-Amino-4-methyl-6-(2-(4-oxo-3-phenyl-5-(pyridin-3-yl)-3,4-dihydroquinazolin-2-yl)pyrrolidin-1-yl)pyrimidine-5-carbonitrile], the half-maximal inhibitory concentration (IC50) was 1500 nM.

As for `N#Cc1c(N)ncnc1N1CCC[C@H]1c1nc2cccc(C#CCO)c2c(=O)n1-c1ccccc1` [Example 33, (S)-4-Amino-6-(2-(5-(3-hydroxyprop-1-yn-1-yl)-4-oxo-3-phenyl-3,4-dihydroquinazolin-2-yl)pyrrolidin-1-yl)pyrimidine-5-carbonitrile], the 50% inhibitory concentration (IC50) was determined as 6500 nM.

Turning to `COc1cncc(-c2cccc3nc([C@@H]4CCCN4c4nc(N)nc(C)c4C#N)n(-c4ccccc4)c(=O)c23)c1` [Example 18, (S)-2-Amino-4-(2-(5-(5-methoxypyridin-3-yl)-4-oxo-3-phenyl-3,4-dihydroquinazolin-2-yl)pyrrolidin-1-yl)-6-methylpyrimidine-5-carbonitrile], the IC50 worked out at 420 nM.

The term IC50 denotes the concentration needed to halve the response being measured.

The record behind these values is US9840498B2, “Substituted quinazolin-4-one derivatives” (NOVARTIS AG, priority 2013, dated 2017).
